Assay results from the supplement of paper PMC10307832.

Experiments:
Assay in all cases: relative viability (nuclei count vs DMSO), 5 days (fraction); higher = more cells survive
[1] = compound: c1ccc2c(CCNc3ccc(Nc4ccncc4)cc3)c[nH]c2c1 [Serdemetan] + COc1cc2c(Oc3ccc(NC(=O)C4(C(=O)Nc5ccc(F)cc5)CC4)cc3F)ccnc2cc1OCCCN1CCOCC1 [Foretinib] (partner 0.25 µM)
How it was run: (§1)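 Lung cancer cell lines were seeded in 1536-well plates and dosed by pin tool the next day, with either a single drug or a fixed anchor-drug dose combined with five library-drug doses (not always all listed) spaced in √10 steps. Five days later, one step fixed the cells and stained their nuclei (final 0.05% Triton X-100, 1% formaldehyde, 1 ug/ml Hoechst), and nuclei were counted on 4× images. Relative viability is the nuclei count in treated wells divided by the count in vehicle wells, and each value is the median of duplicate plates.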

[2] = compound: c1ccc2c(CCNc3ccc(Nc4ccncc4)cc3)c[nH]c2c1 [Serdemetan] + CC(=O)Nc1cccc(-n2c(=O)n(C3CC3)c(=O)c3c(Nc4ccc(I)cc4F)n(C)c(=O)c(C)c32)c1 [Trametinib] (partner 0.02 µM)
How it was run: as §1

[3] = compound: C1CC(C2=C(C1)C3=C(N2)C=CC(=C3)Cl)C(=O)N [Selisistat] + Cc1nc(Nc2ncc(C(=O)Nc3c(C)cccc3Cl)s2)cc(N2CCN(CCO)CC2)n1 [Dasatinib] (partner 0.075 µM)
How it was run: as §1

[4] = compound: C1CC(C2=C(C1)C3=C(N2)C=CC(=C3)Cl)C(=O)N [Selisistat] + CC(C)C[C@H](NC(=O)[C@H](Cc1ccccc1)NC(=O)c1cnccn1)B(O)O [Bortezomib] (partner 0.002 µM)
How it was run: as §1

Cell Line	relative viability ([1]; first compound 0.04 µM)	relative viability ([1]; first compound 0.1265 µM)	relative viability ([1]; first compound 0.4 µM)	relative viability ([1]; first compound 1.265 µM)	relative viability ([1]; first compound 4 µM)	relative viability ([2]; first compound 0.04 µM)	relative viability ([2]; first compound 0.1265 µM)	relative viability ([2]; first compound 0.4 µM)	relative viability ([2]; first compound 1.265 µM)	relative viability ([2]; first compound 4 µM)	relative viability ([3]; first compound 0.4 µM)	relative viability ([3]; first compound 4 µM)	relative viability ([3]; first compound 12.65 µM)	relative viability ([3]; first compound 40 µM)	relative viability ([4]; first compound 0.4 µM)	relative viability ([4]; first compound 1.265 µM)	relative viability ([4]; first compound 4 µM)	relative viability ([4]; first compound 12.65 µM)	relative viability ([4]; first compound 40 µM)	relative viability ([3]; first compound 1.265 µM)
LC-2-ad	0.883	0.943	0.831	0.748	0.86	0.86	0.909	0.884	0.86	0.705	0.611	0.456	0.459	0.569	1	1.02	1.03	0.985	1.05	–
NCI-H1915	1.14	1.09	1.07	1.03	0.837	0.3	0.309	0.286	0.257	0.242	0.322	0.261	0.319	0.313	1.03	0.943	0.953	1.02	1	0.312
NCI-H2023	0.804	0.795	0.689	0.653	0.267	0.616	0.538	0.522	0.223	0.298	0.495	0.524	0.539	0.512	0.978	0.961	0.849	0.95	0.928	0.497
COR-L 105	0.979	0.866	0.9	0.839	0.772	0.435	0.482	0.366	0.487	0.491	0.339	–	0.297	0.32	0.772	0.868	0.493	0.725	0.72	0.357
RERF-LC-KJ	0.836	0.884	0.786	0.79	0.887	0.896	0.874	0.898	0.793	0.778	1.04	0.818	0.625	0.568	1.18	1.02	0.974	1	1.05	0.813
LXF-289	1.02	1.01	0.951	0.62	0.793	0.638	0.624	0.652	0.621	0.503	0.286	0.305	0.245	0.303	1.02	1.05	0.832	0.937	0.984	0.239
PC-14	0.862	0.939	0.376	0.83	1.1	0.798	0.747	–	0.647	0.601	0.259	0.279	0.289	0.3	0.848	0.713	0.861	0.886	0.888	0.302
NCI-H650	0.986	1.01	1.08	0.936	0.777	0.891	0.937	0.986	0.903	0.612	0.427	0.52	0.382	0.493	0.832	–	0.868	0.636	1.08	0.469
NCI-H1666	0.967	0.909	0.937	0.591	0.742	0.887	0.854	0.836	–	0.672	0.799	0.734	0.594	0.525	1.07	0.797	0.612	0.739	0.547	0.763
NCI-H2085	1	0.899	1	0.936	0.533	0.467	0.552	0.289	0.264	0.301	0.262	0.204	0.27	0.257	1.07	1.14	0.95	1.17	1.02	0.219
NCI-H1734	0.692	0.335	0.223	0.126	0.204	0.555	0.358	0.246	0.147	0.161	0.48	0.622	0.502	0.464	0.902	0.879	0.946	1.1	0.869	0.469
NCI-H2126	1.23	1.13	1.03	1.01	1.03	0.59	0.557	0.577	0.512	0.604	0.705	0.525	0.601	0.616	1.2	1.15	1.12	1.12	1.17	0.597
EMC-BAC-2	0.969	1.02	1.04	0.809	0.676	0.833	0.889	0.886	0.754	0.719	0.355	0.378	0.317	0.315	1.08	1.05	1.01	1.05	1.04	0.367
NCI-H1993	0.888	0.813	0.692	0.76	0.672	0.549	0.516	0.413	0.599	0.494	0.629	0.501	0.672	0.589	1.22	1.18	–	1.25	1.23	0.655
NCI-H520	0.668	0.737	0.874	–	0.511	0.632	0.65	0.623	0.57	0.428	0.185	0.327	0.216	0.195	0.525	0.495	0.619	0.648	0.738	0.201
NCI-H647	1.2	1.15	1.1	1.17	0.801	0.482	0.475	0.558	0.361	0.304	0.229	0.176	0.154	0.218	0.95	0.987	–	0.885	1.16	0.186
